Calls of active or inactive are those of the source. For most assays here, no stated cut-off is given here; in the data, actives have a measured EC50 and inactives only a lower limit.

From ChEMBL document CHEMBL1201862, “PubChem BioAssay data set” (2004) come the findings set out here.

Assay [1] concerns the target T1, Leucine aminopeptidase (Plasmodium falciparum 3D7, UniProt Q8IL11).
T1 sequence (Q8IL11 whole entry): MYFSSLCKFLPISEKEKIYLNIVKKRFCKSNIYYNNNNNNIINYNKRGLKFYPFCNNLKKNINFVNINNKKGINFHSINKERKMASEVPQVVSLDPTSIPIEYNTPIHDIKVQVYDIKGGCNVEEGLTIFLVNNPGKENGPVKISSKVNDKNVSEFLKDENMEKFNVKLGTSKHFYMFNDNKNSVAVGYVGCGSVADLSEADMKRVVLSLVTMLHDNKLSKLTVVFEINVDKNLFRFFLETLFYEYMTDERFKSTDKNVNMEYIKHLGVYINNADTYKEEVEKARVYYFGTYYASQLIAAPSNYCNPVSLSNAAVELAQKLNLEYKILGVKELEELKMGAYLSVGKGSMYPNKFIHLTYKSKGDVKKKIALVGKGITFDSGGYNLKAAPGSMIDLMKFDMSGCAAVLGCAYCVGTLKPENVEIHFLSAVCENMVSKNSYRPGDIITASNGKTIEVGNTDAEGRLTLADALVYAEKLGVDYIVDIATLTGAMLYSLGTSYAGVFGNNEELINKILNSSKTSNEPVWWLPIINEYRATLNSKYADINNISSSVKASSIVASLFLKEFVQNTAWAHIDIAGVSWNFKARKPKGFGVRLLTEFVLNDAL
The assay is described as follows: P. falciparum M17LAP inhibitors, primary screen, biochemical, fluorogenic H-Leu-NHMec substrate, 1536-well (AID 1619). Type of assay: functional.

The nature of assay [2]: cytotoxicity in KRAS-transformed pancreatic duct cells, primary screen, cell-based, fluorescence, HTS (AID 431).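 Further: cell line used: HPDE-C7K.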 Type of assay: functional. The conditions noted are these: Homo sapiens.
A short description of assay [3]: cytotoxicity in HPDE-C7 cells, cell-based, fluorescence, HTS (AID 430). The conditions noted are these: Homo sapiens. It counts as functional.
The target of assay [4] is T2, Replicative DNA helicase DnaB (Mycobacterium tuberculosis, UniProt P9WMR3).
T2 sequence (P9WMR3 whole entry): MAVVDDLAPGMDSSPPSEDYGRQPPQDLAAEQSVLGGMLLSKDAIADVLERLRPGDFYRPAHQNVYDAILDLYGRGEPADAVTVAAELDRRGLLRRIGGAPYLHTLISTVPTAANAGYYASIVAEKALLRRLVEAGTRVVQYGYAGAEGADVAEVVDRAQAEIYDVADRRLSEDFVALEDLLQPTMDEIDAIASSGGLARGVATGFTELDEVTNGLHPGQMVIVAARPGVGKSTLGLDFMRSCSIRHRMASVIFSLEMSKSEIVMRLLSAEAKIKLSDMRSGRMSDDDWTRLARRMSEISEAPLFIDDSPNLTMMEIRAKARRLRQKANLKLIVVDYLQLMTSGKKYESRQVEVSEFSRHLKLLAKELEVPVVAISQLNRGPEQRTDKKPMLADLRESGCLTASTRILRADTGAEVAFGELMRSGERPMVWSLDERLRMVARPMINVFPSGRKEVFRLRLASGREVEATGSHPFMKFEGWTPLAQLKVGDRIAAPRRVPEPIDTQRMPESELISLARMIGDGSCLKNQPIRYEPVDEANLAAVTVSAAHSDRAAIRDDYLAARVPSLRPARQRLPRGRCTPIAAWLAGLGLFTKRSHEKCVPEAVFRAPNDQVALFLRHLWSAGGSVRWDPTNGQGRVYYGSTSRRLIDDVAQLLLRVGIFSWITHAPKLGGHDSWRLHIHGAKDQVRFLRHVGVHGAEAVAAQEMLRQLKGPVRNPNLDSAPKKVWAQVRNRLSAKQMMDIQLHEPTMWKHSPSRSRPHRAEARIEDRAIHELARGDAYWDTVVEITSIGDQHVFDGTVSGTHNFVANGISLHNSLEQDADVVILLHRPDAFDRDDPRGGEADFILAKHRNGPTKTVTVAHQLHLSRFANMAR
The assay is described as follows: DnaB intein splicing inhibitors, dose response, biochemical, cell-free fluorescence (AID 449749). It counts as functional.

Assay [5] deals with T3, Protein RecA (Mycobacterium tuberculosis, UniProt P9WHJ3).
T3 sequence (P9WHJ3 whole entry): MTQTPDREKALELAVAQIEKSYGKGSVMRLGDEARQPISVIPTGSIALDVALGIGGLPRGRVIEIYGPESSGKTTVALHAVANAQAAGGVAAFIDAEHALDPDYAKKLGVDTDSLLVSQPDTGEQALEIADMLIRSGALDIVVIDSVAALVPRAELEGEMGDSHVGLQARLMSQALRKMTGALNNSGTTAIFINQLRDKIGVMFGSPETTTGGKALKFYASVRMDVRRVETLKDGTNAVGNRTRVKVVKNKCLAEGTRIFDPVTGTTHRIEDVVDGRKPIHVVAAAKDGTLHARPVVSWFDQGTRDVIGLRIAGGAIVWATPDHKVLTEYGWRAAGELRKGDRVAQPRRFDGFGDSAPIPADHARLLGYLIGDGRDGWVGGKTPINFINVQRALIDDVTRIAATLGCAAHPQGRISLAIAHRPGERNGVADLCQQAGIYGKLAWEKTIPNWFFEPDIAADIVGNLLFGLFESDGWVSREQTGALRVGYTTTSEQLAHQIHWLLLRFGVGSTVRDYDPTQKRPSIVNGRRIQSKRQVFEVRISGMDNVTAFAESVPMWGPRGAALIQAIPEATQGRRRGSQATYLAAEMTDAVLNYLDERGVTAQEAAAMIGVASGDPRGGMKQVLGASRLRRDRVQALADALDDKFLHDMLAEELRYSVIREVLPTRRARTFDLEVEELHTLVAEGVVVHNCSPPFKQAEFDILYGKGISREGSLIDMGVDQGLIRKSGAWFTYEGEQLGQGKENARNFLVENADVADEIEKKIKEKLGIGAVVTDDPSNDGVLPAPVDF
The assay is described as follows: Fluorescence Cell-Free Homogeneous Dose Retest to Identify Inhibitors of RecA-Intein Splicing Activity. [Related pubchem assays (depositor defined):AID2097, AID2223, AID489010, AID492950]. Type of assay: functional.

The target of assay [6] is Peroxisome proliferator-activated receptor gamma/Nuclear receptor coactivator 3 (Homo sapiens, UniProt P37231). Type of assay: functional.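 Further: agonist potency for raising coactivator recruitment to the receptor.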
The target of assay [7] is Peroxisome proliferator-activated receptor gamma/Nuclear receptor coactivator 1 (Homo sapiens, UniProt P37231). It counts as functional.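 Further: agonist potency as compounds enhance coactivator SRC-1 recruitment to PPARgamma.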
For assay [8], the target named is Peroxisome proliferator-activated receptor gamma/Nuclear receptor coactivator 2 (Homo sapiens, UniProt P37231). It counts as functional.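 Further: agonist potency for raising coactivator recruitment to the receptor.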
A short description of assay [9]: Luminescence Cell-Based Dose Response to Identify Activators of Luciferase Translation or Activity in H4-C Neuroglioblastoma Cells. [Related pubchem assays: 1829 (Project Summary), 1814 (Primary HTS)]. Type of assay: functional.
Assay [10] can be described thus: Luminescence Cell-Based Dose Confirmation to Identify Activators of 5'UTR Stem-Loop Driven Alpha-Synuclein mRNA Translation in H4 Neuroglioblastoma Cells. [Related pubchem assays: 1829 (Project Summary), 1814 (Primary HTS)]. Type of assay: functional.
Assay [11] in a line: cells. It counts as functional.
The subject of assay [12] is H4. The assay is described as follows: Luminescence Cell-Based Dose Response HTS to Identify Activators of 5'UTR Stem-Loop Driven Prion Protein mRNA Translation in H4 Neuroglioblastoma Cells. [Related pubchem assays: 1829 (Project Summary), 1814 (Primary HTS)]. The conditions noted are these: Homo sapiens. It counts as functional.
Assay [13] in a line: Luminescence Cell-Based Dose Response HTS to Identify Activators of Luciferase Translation or Activity in H4 […] Cells. [Related pubchem assays: 1829 (Project Summary), 1814 (Primary HTS)]. Type of assay: functional.
A short description of assay [14]: Luminescence Cell-Based Dose Response to Identify Activators of 5'UTR Stem-Loop Driven Prion Protein mRNA Translation in H4-C Neuroglioblastoma Cells. [Related pubchem assays: 1829 (Project Summary), 1814 (Primary HTS)]. Type of assay: functional.
Assay [15] can be described thus: HEp-2 cell cytotoxicity, dose response, cytotoxicity control for RSV inhibitor project, HTS (AID 2410). It counts as functional. The settings on record: human respiratory syncytial virus.
A short description of assay [16]: Luminescence-based counterscreen assay for KLF5 inhibitors: dose response cell-based high throughput screening assay to identify cytotoxic compounds using the IEC-6 intestinal epithelial cell line. [Related pubchem assays: 1700 (Primary screen.), 1834 (Confirmation screen.), 1858 (Summary AID.), 1905 (Counterscreen.)]. Type of assay: functional. (A counterscreen serves to expose hits that act by an unwanted route or on another target.)

A short description of assay [17]: cytotoxicity in HEK-293T cells, dose response, cytotoxicity control for TCR NF-kB inhibitor project, luminescence, T-cell screen hits (AID 489026).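 Further: cells exposed to compound about 14 hours before the viability readout.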 Type of assay: functional, cell-based.
The nature of assay [18]: Luminescence Cell-Based Dose Response HTS to Identify Inhibitors of 5'UTR Stem-Loop Driven Prion Protein mRNA Translation in H4 Neuroglioblastoma Cells. [Related pubchem assays: 1827 (Project Summary), 1813 (Primary HTS)]. It counts as functional.
In assay [19] the target is Luciferin 4-monooxygenase (Photinus pyralis, UniProt P08659). Kind of assay: firefly luciferase enzyme inhibitors, dose response, biochemical, luminescence (AID 1891).
Assay [20] can be described thus: Luminescence Cell-Based Dose Confirmation HTS to Identify Inhibitors of Platelet Dense Granule Release. [Related pubchem assays: 1663 (Primary HTS), 1678 (Summary of Project)]. It counts as functional.
A short description of assay [21]: inhibitors of firefly luciferase expression or activity, dose response, H4 neuroglioma cells, luminescence (AID 1990). It counts as functional, cell-based.
Assay [22] is described as follows: inhibitors of SNCA 5'UTR-driven reporter translation, confirmation, H4 neuroglioma cells, luminescence (AID 1988). Type of assay: functional, cell-based.
Assay [23] in a line: Luminescence Cell-Based Dose Confirmation HTS to Identify Activators of 5'UTR Stem-Loop Driven Alpha-Synuclein mRNA Translation in H4 Neuroglioblastoma Cells. [Related pubchem assays: 1829 (Project Summary), 1814 (Primary HTS)]. Type of assay: functional.

Chain of Peroxisome proliferator-activated receptor gamma/Nuclear receptor coactivator 1 (P37231 whole entry): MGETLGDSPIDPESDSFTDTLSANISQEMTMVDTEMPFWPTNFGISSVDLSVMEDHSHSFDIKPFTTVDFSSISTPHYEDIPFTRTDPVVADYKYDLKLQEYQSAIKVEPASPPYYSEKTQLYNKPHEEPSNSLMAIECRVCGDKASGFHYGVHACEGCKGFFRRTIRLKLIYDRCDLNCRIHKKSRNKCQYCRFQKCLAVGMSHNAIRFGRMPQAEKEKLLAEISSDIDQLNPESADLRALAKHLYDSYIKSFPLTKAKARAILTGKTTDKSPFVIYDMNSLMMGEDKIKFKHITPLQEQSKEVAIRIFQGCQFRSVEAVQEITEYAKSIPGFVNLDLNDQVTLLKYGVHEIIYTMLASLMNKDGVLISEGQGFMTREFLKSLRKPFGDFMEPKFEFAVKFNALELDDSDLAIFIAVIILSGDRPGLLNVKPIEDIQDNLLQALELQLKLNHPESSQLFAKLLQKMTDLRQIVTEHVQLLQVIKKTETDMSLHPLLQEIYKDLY
Chain of Peroxisome proliferator-activated receptor gamma/Nuclear receptor coactivator 1 (Q15788 whole entry, further chain): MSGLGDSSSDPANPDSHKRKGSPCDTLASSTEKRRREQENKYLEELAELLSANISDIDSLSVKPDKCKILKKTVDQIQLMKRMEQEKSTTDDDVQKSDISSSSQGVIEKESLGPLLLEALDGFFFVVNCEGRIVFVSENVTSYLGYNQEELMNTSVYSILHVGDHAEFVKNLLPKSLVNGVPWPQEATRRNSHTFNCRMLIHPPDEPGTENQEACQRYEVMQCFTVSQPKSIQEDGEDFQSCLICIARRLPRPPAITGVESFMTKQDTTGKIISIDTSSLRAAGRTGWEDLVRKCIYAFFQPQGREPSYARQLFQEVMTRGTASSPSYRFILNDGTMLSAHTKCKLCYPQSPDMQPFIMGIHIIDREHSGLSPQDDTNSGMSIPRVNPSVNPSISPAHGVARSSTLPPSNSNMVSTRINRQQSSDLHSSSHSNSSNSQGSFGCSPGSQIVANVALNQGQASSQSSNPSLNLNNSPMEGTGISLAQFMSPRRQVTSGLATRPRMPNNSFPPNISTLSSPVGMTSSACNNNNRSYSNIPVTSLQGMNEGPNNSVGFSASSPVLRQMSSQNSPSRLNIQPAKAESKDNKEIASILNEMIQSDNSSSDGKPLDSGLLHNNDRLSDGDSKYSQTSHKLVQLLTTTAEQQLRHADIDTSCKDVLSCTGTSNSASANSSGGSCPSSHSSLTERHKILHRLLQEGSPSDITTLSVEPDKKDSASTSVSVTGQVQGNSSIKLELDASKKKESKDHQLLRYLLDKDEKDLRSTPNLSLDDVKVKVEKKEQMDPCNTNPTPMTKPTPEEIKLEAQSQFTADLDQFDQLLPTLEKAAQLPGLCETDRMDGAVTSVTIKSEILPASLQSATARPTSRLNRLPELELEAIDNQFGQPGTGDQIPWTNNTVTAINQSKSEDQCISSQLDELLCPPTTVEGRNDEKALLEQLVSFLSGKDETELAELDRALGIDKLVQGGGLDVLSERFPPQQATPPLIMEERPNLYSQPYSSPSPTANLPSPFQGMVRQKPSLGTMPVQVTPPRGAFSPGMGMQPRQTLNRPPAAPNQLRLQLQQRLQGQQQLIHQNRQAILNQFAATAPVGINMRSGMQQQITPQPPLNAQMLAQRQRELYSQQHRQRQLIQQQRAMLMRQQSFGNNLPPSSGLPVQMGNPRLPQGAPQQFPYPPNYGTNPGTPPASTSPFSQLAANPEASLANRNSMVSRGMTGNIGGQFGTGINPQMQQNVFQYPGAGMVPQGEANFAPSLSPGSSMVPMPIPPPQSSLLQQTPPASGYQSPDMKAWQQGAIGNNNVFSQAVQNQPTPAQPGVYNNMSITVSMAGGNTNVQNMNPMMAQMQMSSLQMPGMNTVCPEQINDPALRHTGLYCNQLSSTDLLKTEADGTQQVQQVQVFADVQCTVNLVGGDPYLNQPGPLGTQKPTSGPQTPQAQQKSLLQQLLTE
Chain of Peroxisome proliferator-activated receptor gamma/Nuclear receptor coactivator 2 (P37231 whole entry): as the sequence (P37231 whole entry) above
Chain of Peroxisome proliferator-activated receptor gamma/Nuclear receptor coactivator 2 (Q15596 whole entry, further chain): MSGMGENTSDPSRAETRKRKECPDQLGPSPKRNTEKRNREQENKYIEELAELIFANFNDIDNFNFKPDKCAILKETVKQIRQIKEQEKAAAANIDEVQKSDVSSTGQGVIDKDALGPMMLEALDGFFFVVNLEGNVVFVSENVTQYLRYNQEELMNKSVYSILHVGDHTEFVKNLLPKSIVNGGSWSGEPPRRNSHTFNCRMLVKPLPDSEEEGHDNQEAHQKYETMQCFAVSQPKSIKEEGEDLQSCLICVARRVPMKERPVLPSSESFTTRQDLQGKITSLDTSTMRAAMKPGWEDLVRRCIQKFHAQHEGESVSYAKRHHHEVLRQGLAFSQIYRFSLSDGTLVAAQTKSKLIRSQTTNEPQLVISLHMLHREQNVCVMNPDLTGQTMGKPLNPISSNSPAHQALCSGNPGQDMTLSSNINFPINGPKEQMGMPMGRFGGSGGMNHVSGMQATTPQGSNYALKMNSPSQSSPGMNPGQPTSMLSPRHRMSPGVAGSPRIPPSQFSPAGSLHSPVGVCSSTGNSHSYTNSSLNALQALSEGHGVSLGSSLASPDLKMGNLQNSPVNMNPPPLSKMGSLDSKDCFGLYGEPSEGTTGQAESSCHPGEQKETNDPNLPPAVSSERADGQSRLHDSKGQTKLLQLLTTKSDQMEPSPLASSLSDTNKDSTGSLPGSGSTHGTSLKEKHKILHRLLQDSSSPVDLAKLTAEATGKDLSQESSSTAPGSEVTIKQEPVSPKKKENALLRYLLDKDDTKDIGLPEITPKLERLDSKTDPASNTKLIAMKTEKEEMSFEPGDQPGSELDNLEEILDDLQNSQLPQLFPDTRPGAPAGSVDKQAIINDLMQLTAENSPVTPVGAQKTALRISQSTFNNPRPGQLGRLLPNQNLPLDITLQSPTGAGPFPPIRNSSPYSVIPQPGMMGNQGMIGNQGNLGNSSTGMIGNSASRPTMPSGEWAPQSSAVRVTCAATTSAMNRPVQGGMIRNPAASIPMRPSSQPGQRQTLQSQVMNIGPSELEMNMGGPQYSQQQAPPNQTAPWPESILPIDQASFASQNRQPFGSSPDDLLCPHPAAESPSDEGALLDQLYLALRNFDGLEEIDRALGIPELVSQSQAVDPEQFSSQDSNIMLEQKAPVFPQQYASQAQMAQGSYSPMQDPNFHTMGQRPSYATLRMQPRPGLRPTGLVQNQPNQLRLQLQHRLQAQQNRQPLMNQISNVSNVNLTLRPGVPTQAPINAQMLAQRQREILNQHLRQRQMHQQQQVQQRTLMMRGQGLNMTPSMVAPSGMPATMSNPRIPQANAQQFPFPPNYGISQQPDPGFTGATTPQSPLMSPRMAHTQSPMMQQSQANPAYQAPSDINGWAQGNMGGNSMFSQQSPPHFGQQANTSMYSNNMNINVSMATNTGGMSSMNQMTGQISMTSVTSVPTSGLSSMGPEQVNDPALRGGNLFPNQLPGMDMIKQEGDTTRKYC
Chain of Luciferin 4-monooxygenase (P08659 whole entry): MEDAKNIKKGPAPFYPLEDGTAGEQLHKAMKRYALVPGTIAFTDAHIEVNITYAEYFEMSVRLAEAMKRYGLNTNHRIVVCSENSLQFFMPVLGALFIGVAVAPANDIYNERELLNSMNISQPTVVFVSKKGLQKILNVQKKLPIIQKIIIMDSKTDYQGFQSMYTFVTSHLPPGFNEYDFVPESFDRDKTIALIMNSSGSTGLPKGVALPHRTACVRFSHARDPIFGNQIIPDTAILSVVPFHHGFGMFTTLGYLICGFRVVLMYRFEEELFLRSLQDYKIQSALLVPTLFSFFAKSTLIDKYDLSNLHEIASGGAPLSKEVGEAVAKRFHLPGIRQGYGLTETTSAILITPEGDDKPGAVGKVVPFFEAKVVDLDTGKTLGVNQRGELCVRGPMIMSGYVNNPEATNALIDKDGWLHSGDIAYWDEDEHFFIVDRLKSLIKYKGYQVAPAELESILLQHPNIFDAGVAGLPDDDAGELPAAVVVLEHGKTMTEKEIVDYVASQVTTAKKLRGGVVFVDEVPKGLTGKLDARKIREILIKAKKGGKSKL

Take `COc1ccc(NC(=O)CSc2nccc(C)n2)cc1`: the IC50 in [1] was 20.3 µM (active).

Turning to `O=S(=O)(CCSc1ccccn1)c1nc2ccccc2s1`, the EC50 in [2] was 8.47 µM (active); in assay [3] it was 6.03 µM (active); in [5] it was 9.21 µM (active). For the same compound, the AC50 in assay [4] is 5.68 µM (active).

Regarding `COc1ccc(S(=O)(=O)Nc2c(F)cccc2F)cc1`, the EC50 in assay [6], in assay [7] and in [8] was > 79.4 µM (not active) each time.

For `Cc1ccc(NC(=O)ON=C2CCCC2)cc1`, the EC50 is 0.501 µM (active) in [9]; 0.547 µM (active) in assay [10]; > 120 µM (not active) in [12]; 0.777 µM (active) in assay [13]; 1.53 µM (active) in assay [14]. In assay [11], the IC50 is 43.2 µM (active).

`O=C(Nc1ccccc1NC(=O)c1c(F)c(F)c(F)c(F)c1F)c1c(F)c(F)c(F)c(F)c1F`: the values for the EC50 in assay [2] and in [3] were 17.1 µM (active) and 12.5 µM (active), respectively.

As for `CCOc1ccc(S(=O)(=O)Nc2cc(Sc3nc[nH]n3)c3oc(=O)sc3c2)cc1`, the figures for the EC50 in assay [2] and in assay [3] were 13.8 µM (active) and 18.6 µM (active), respectively. Also, the CC50 in [15] is 26.2 µM (active).

In the case of `Cc1cc(NC(=O)CN2C(=O)NC3(CCC(C)CC3)C2=O)no1` (stereo unspecified), the EC50 in assay [6], in [7] and in assay [8] was > 79.4 µM (not active) throughout.

`O=C1c2n[nH]c(-c3ccccc3O)c2C(c2ccc(F)cc2)N1Cc1ccco1` (stereo unspecified): the 50% effective concentration (EC50) is 18.7 µM (active) in [2] and 16.9 µM (active) in assay [3].

As to `CCOC(=O)Nc1c(O)ccc2oc(C)c(-c3ccccc3)c12`, the IC50 in assay [1] was 17.3 µM (active).

`COC(=O)CSc1nc2cc3c(cc2cc1C#N)OCO3`: the EC50 in assay [6] is 7.25 µM (active); in assay [7], 7.89 µM (active); in [13] it was 0.176 µM (active); in assay [8], 5.17 µM (active).

With `NC(=NOCc1ccc([N+](=O)[O-])cc1)c1ccccn1`, the IC50 in [16] was > 39.8 µM (not active); in assay [17], > 80 µM (inactive). The EC50 in assay [18] was 0.223 µM (active); in [19] it was 9.46 µM (active); in [20] it was 7.95 µM (active); in assay [21] it was 0.201 µM (active); in [22], 0.143 µM (active).

As for `CC1=NNC(=O)C1CC(=O)N/N=C/C(C)=C/c1ccccc1` (stereo unspecified), the IC50 in assay [1] was 52.8 µM (active).

As for `COc1ccc(CC(=O)NCc2nnc(SCC(=O)Nc3cccc(F)c3)n2C)cc1`, the concentration giving a half-maximal response (EC50) in assay [6], in [7] and in [8] was > 79.4 µM (not active) in each case.

As for `Cc1nc(SCC(=O)Nc2ccc(F)cc2)c2oc3ccccc3c2n1`, the EC50 was > 79.4 µM (not active) in assay [6], > 79.4 µM (not active) in [7] and 9.31 µM (active) in [8].

Take `N=C(CS(=O)(=O)c1ccccn1)NOC(=O)c1ccccc1Cl`: the EC50 in [9] is 5.85 µM (active); in assay [10], 0.244 µM (active); in [23], 0.17 µM (active); in assay [12], 10.7 µM (active); in assay [13], < 0.1 µM (active); in assay [14], 0.769 µM (active).

Consider `N#C/C(=C\c1cccs1)Sc1nc2ccccc2s1`, for which the EC50 in [2] was 16.3 µM (active); in assay [3], 17.3 µM (active).

For orientation: IC50 means the midpoint of a concentration-inhibition curve. One may read the EC50 as the concentration that produces a half-maximal response. A word on the AC50: it is the concentration giving half of the maximal activity seen. The term CC50 denotes the concentration that lowers cell viability or growth by half.
